The values that follow come from US20240174985A1, “METHOD FOR PRODUCING OVARIAN SOMATIC CELL-LIKE CELLS, AND METHOD FOR INDUCING DIFFERENTIATION OF PRIMATE PLURIPOTENT STEM CELLS INTO OVARIAN SOMATIC CELL-LIKE CELLS” (Kyoto University, priority 2021, published 2024).

Read-outs that look alike come from different tables or passages of the source. Bounds are passed on as bounds.

What all share (type): cell-based
In data set [1] the test system is cynomolgus monkey ES cells. Particulars: for concentration considered the best in step 2: conclusion at the time of experiment 21.
The next data set relates to human iPS cells. In words: Induction of differentiation from human iPS cells into ovarian somatic cell-like cells (FACS of OSR1-tdTomato/NR5A1-EGFP reporters, observation of embryoid bodies). An excerpt: In order to conveniently observe the expression of genes typical at each developmental stage, a human iPS cell line 1390G3 was genetically modified, and a DNA sequence that emits red fluorescence (tdTomato) with the expression of the OSR1 gene, green fluorescence (EGFP) with the expression of the NR5A1 gene, and red fluorescence (tdTomato) with the expression of the FOXL2 gene was manufactured (see FIG. 1, and after introduction into the chromosome, a portion of “PGKp-Neo (or Puro)-pA” portion was deleted with Cre). An iPS cell line into which two DNA sequences of OSR1 and NR5A1 had been introduced (which may be hereinafter abbreviated as “OTNG”), and an iPS cell line into which two DNA sequences of NR5A1 and FOXL2 had been introduced (which may be hereinafter abbreviated as “NGFT”) were manufactured. In the present test, the OTNG strain was used in most of the experiments. Furthermore, NR5A1 and SF1 are the same gene.
(§1) The cells at each stage were analyzed using a flow cytometer (BD FACSAria III).
The ES cells of monkeys and human iPS cells are considered to be similar to EpiLC in a slightly advanced state in terms of differentiation, as compared with mouse ES cells. Therefore, in the examination using monkey or human pluripotent stem cells in the present test, step 0 was omitted and the process was started from step 1. […] For this reason, Y27632 was added to step 1 to perform examination. In addition, a 96-well V-bottom plate was used as a culture plate and the cells were seeded so as to have 10,000 cells per well.
In a test using human cells, the base medium was changed from GMEM (used in mice) to DMEM including 7.5 v/v % KnockOut (registered trademark) Serum Replacement (KSR). In addition, the base medium includes 0.1 mM 2-mercaptoethanol, 100 U/mL penicillin/streptomycin, and 2 mM GlutaMax (registered trademark), but the additives and concentrations thereof are fixed, and the description following “2.” is omitted. The periods of step 1 and step 2 were set to be the same as those in the mouse protocol, and culture was continued under the condition of step 3. The entire medium was basically changed every two or three days. At the time of subculturing iPS cells, 30,000 cells were seeded on a low-adhesive plate to start the culture as aggregates.

The subject of data set [2] is cynomolgus monkey ES cells.
Source text: In order to conveniently observe the expression of genes represented by each developmental stage, the stop codons of TBXT, OSR1, NR5A1, FOXL2, WT1, and GATA4 were deleted from the cynomolgus monkey female ES15XRi cell strain using a Cas9 nickase and gene targeting, 2A and EGFP (TBXT, NR5A1), tdTomato (OSR1, FOXL2, and WT1), and 2A and mTagBFP2 (GATA4) were inserted, and then a drug-resistant cassette sandwiched between loxP's was knocked in (FIGS. 24A to 24F; and in FIG. 24A to FIG. 24F, “PGK” represents a PGK promoter). Thereafter, the drug-resistant cassette was removed using Cre to manufacture the following five double reporter cell strains. • (1) TBXT-EGFP/OSR1-tdTomato (which may be hereinafter abbreviated as a “TGOT strain”); • (2) NR5A1-EGFP/FOXL2-tdTomato (which may be hereinafter abbreviated as a “NGFT strain”); • (3) a single reporter strain of NR5A1-EGFP (which may be hereinafter abbreviated as an “NG-Puro strain”. This strain has not been subjected to the removal of the drug-resistant cassette by Cre); • (4) a triple reporter strain of WT1-tdTomato/GATA4-mTagBFP2/NR5A1-EGFP (which may be hereinafter abbreviated to as a “WTGBNG strain”); and • (5) WT1-tdTomato/NR5A1-EGFP (which may be hereinafter abbreviated as a “WTNG strain”).
as §1
At the time of induction, the ES cells were cultured on mouse embryonic fibroblasts (MEF), which are feeder cells, treated with a proteolytic enzyme solution (CTK: collagenase, trypsin, and KSR), and then dissociated up to a single-cell level using TrypLEselect. Next, each of 30,000 cells was seeded in a low-adhesive 96-well U-bottom culture plate (hereinafter, step 1 was started by the same method unless otherwise specified). A TGOT No. 25 strain was used as a cell strain. The presence or absence of the ROCK inhibitor (Y-27632) in step 1 was examined. In FIG. 25A, the base medium GK7.5 has a composition of GMEM, 7.5 v/v % KSR, 0.1 mM 2-ME, 0.1 mM non-essential amino acid (NEAA), 1 mM sodium pyruvate, 100 U/mL penicillin/streptomycin, and 2 mM L-glutamine. The induction was performed for a period in step 1 of 2 days and in step 2 of 2 days. In step 2, PD173074 was used instead of PD0325901 used in mice. PD173074 is an inhibitor of FGF, whereas PD0325901 is an MEK inhibitor downstream of the FGF signaling pathway.

Where [3] appears, read: added to each condition in step 3 (16 patterns), day 16.
[4] abbreviates: one cytokine added with EGF in step 3, compared with no cytokine control (CK−), BMP4 1 ng/ml, SHH 30 ng/mL, PD0325901 1 μM, RA 3 μM, day 16.
[5] abbreviates: one cytokine added with EGF in step 3, compared with no cytokine control (CK−), day 16.

With `CNC1CCC(N(Cc2cccc(-c3ccncc3)c2)C(=O)c2sc3ccccc3c2Cl)CC1` (stereo not drawn) [SAG], the “replacement of SHH in step 2” value in data set [1] (SAG 100 nM, FACS day 16) is given as “SHH can be replaced with SAG”.

With EGF: epidermal growth factor, in data set [1], the “concentration considered the best in step 2” value is given as 50 ng/mL. In data set [1] (no addition of EGF in step 1 and step 2, FACS day 16, NGFT No. 69), the necessity for induction result is on record as “not essential”.

Take `CC1(C)CC=C(C#Cc2ccccc2)c2cc(/C=C/c3ccc(C(=O)O)cc3)ccc21` [BMS493]: in data set [1] (1 μM in step 1, FACS days 2, 4, 6), the “OSR1 expression in step 2” value was “enhancement”. Moreover, in data set [1] (BMS493 1 μM added in step 3), the “expression level of SF1-EGFP” value is reported as “slightly increased” and the “induction efficiency of SF1-positive cells” value is “poor”. In data set [1] (BMS493 1 μM for 48 hours in step 3, WTGBNG No. 1 strain), the “expression level of WT1” value is “slightly decreased”. In data set [1] (addition in step 1 (BMS493 1 μM), FACS day 14), the “induction of NR5A1-positive cells” value is recorded as “no particular advantage”.

Turning to `O=C(NOC[C@H](O)CO)c1ccc(F)c(F)c1Nc1ccc(I)cc1F` [PD0325901], in data set [1] (FACS day 16, NGFT No. 69 strain), the “optimum concentration of PD0325901 in step 2” value is 1 µM. Besides, the induction efficiency result is listed as “higher” in data set [1] (MEK downstream of FGF inhibited with PD0325901 1 μM in step 3, FACS day 16); “improved” in data set [1] (setting [3]); “the highest” in data set [1] (addition of PD0325901 in step 3, without addition of SHH, WTGBNG No. 1); “further increased” in data set [1] (setting [4]). The “number of the induced cells” value in data set [1] (PD03 added in step 3, WTGBNG No. 1) is given as “reduced”. Besides, the “number of induced cells” value in data set [1] (setting [3]) and in data set [1] (setting [5]) was “decreased” each time. The “concentration considered the best in step 2” value in data set [1] amounted to 1 µM. Also, in data set [1] (none, 48 hours, 96 hours tested, NG-Puro strain), the “optimum addition period of PD03 in step 3” value was 48 h. Also, the “size (embryoid bodies) at the end of step 2” value in data set [1] (step 2: PD0325901 3, 1, 0.3, 0 μM or FGF9 20 ng/ml, day 6) is reported as “improved as the amount of PD0325901 was reduced”. Besides, the NR5A1-positive cells entry with human iPS cells (PD0325901 not added in step 2, day 15 of induction) was “not observed at all”; with human iPS cells (PD0325901 weak in step 2 (0.4-1.0 μM tested), day 15), “did not appear”. The “PD0325901 concentration with the highest differentiation induction efficiency” value with human iPS cells (step 2, KSR 7 v/v %, day 15) was found to be 1.0 µM.

`CC1=C(/C=C/C(C)=C/C=C/C(C)=C/C(=O)O)C(C)(C)CCC1` [RA, retinoic acid]: the “concentration of RA in step 2 at which induction efficiency for NR5A1-positive cells was particularly excellent” value in data set [1] (0, 0.3, 1, 3, 10 μM tested, FACS day 16) is at least 3 µM. Further, the “concentration considered the best in step 2” value in data set [1] came to 3 µM.

As to BMP4: bone morphogenetic protein 4, the “embryoid bodies (size; concern about cytotoxicity)” value in data set [1] is listed as “the same tendency was recognized”. Further, the “best concentration in step 2 (induction efficiency)” value in data set [1] (BMP4 0, 1, 5, 10 and SHH 0, 30, 60, 100 ng/ml tested, FACS day 16) turned out to be 1 ng/mL. Also, the “concentration in step 3 that most induced NR5A1-positive cells” value in data set [1] (BMP4 0, 1, 20, 50 and FGF9 0, 2, 10, 20 ng/ml tested, FACS day 16) stood at 1 ng/mL. Besides, the induction efficiency entry was “higher” in data set [1] (BMP4 not added after step 2 (four-step method), FACS day 16) and “reduced” in data set [1] (setting [4]). For the same compound, the “number of induced cells” value was “decreased only in a case where BMP4 was added to EGF+RA (ER+B)” in data set [1] (setting [3]) and “large” in data set [1] (setting [5]). The “expression of OSR1” value in data set [1] (by the amount of BMP4 added in step 1 (1, 3, 10 ng/ml), CHIR 10 μM) is on record as “increase”; in data set [2] (increasing the amount of BMP in step 1, CHIR99021 14 μM or more), “enhanced”. Besides, in data set [1], the “concentration considered the best in step 2” value is 1 ng/mL. For the same compound, in data set [1] (periods 3-3-10 (days), day 16), the “concentration in step 1 at which number and proportion of the positive cells were maximal” value amounted to 0 ng/mL.

Regarding `C[C@@H](N)[C@H]1CC[C@H](C(=O)Nc2ccncc2)CC1` [Y-27632], in data set [2] (without Y-27632 in step 1, day 2 of induction, TGOT No. 25 strain), the “efficiency of forming cell aggregates (embryoid bodies)” value is on record as “significantly low”.

On to `Cc1c[nH]c(-c2cnc(NCCNc3ccc(C#N)cn3)nc2-c2ccc(Cl)cc2Cl)n1` [CHIR99021], for which the NR5A1-positive cells entry in data set [1] (CHIR 20 μM in step 1, culture until day 17, NGFT No. 69 strain) is on record as “a number of NR5A1-positive cells were observed”. Moreover, the “concentration of CHIR99021 at which OSR1 can be expressed with high efficiency” value in data set [1] (step 1, at a transition to step 2, FACS days 4 and 6) is at least 14 µM. Besides, in the data set on human iPS cells (CHIR99021 15 μM as compared to 10 μM in step 1), the “proportion of NR5A1-positive cells” value is listed as “excellent”. The “expression of OSR1” value in data set [2] (CHIR 10 μM in step 1, regardless of the concentration of BMP4) was “confirmed”. Also, the “optimum concentration of CHIR for induction of the intermediate mesoderm” value in data set [2] (step 1) is at least 10 µM. Besides, the “concentration of CHIR99021 at which TBXT can be expressed with high efficiency” value in data set [2] (step 1 of 2 days, FACS day 2, TGOT No. 25 strain) is at least 8 µM.
